“And” between values parts separate entries of the source, which are not always exact repeats. Equal values may be shown once. Read-outs that look alike come from different tables or passages of the source.
What was measured:
Pseudomonas aeruginosa [1] = assay: Minimum inhibitory concentration (NCCLS broth microdilution); type: cell-based; settings: LB media with 0.2% glucose; 35° C. for 20-24 hours
Procedure: The minimum inhibitory concentrations (MICs) for several of the specific biofilm inhibitors described herein were determined against several targets, including P. aeruginosa, E. coli, and Staphylococcus aureus. The MICs of the biofilm inhibitors were measured using the reference broth microdilution method recommended by the National Committee for Clinical Laboratory Standards (NCCLS). […] In each assay, positive and negative controls were employed, wherein the positive control included an antimicrobial agent with a known potency range that was used to ensure proper assay performance. The negative control, generally, included the solvent in which the test compounds were dissolved. In this example, the wells correlating to the negative controls included ethanol (without any biofilm inhibitors). […] Thus, each well contained a final volume of approximately 200 μl (not including the volume of the concentrated inhibitor). […] After bacterial inoculation and loading of test and control samples, the plate was incubated in an ambient air environment at 35° C. for 20-24 hours. The plate was subsequently rinsed, stained, and analyzed in accordance with the procedures described in Example 1. […] The minimum inhibitory concentrations were calculated as the lowest inhibitor concentration at which biofilm inhibition was observed.

Staphylococcus aureus = assay: as above; type: cell-based; settings: LB media with 0.2% glucose; 35° C. for 20-24 hours
Procedure: (§1) The minimum inhibitory concentrations (MICs) for several of the specific biofilm inhibitors described herein were determined against several targets, including P. aeruginosa, E. coli, and Staphylococcus aureus. The MICs of the biofilm inhibitors were measured using the reference broth microdilution method recommended by the National Committee for Clinical Laboratory Standards (NCCLS).
(§2) […]. The negative control, generally, included the solvent in which the test compounds were dissolved. In this example, the wells correlating to the negative controls included ethanol (without any biofilm inhibitors).
(§3) In this example, 150 μl of sterile media was added to each well (LB media with 0.2% glucose), along with appropriate volumes of concentrated solutions of the inhibitors to be tested, followed by 50 μl of bacterial inoculum. Thus, each well contained a final volume of approximately 200 μl (not including the volume of the concentrated inhibitor). […]. The plate was subsequently rinsed, stained, and analyzed in accordance with the procedures described in Example 1.
(§4) Tables 7, 8, and 9 summarize the data observed and, specifically, the MICs calculated for the several compounds referenced therein against P. aeruginosa, E. coli, and S. aureus, respectively. The minimum inhibitory concentrations were calculated as the lowest inhibitor concentration at which biofilm inhibition was observed.

Pseudomonas aeruginosa [2] = assay: Microtiter plate biofilm inhibition assay (crystal violet); type: cell-based; settings: 10 μg/ml; LB media with 0.2% glucose; 24 hours at room temperature; average of three wells
Procedure: A microtiter plate assay was used to quantitatively measure the effect each tested compound had on the ability of bacteria to form a biofilm. In this example, a concentrated solution of each compound tested was loaded separately into three separate wells of a polystyrene microtiter plate. In addition, each assay included triplicate wells correlating to negative and positive controls. For the positive controls, biofilm inhibitors of known activity were used, whereas no inhibitors were added to wells correlating to negative controls. […] Thus, each well contained a final volume of approximately 200 μl (not including the volume of the concentrated inhibitor). […] The microtiter plates were then placed on a shaker for 24 hours at room temperature. After the 24 hour incubation period, the microtiter plate was removed from the shaker, rinsed, and stained. During the rinsing step, the test compound, media, and bacterial inoculum solution was drained from the plate, approximately 300 μl of 0.1M phosphate buffered saline (PBS) was added to each well, which was subsequently drained from the plate. The rinsing step removed any suspended cells from the assay. 0.1% crystal violet stain was added to each well for approximately 20 minutes. Next, the crystal violet solution was drained from the microtiter plate. The plate was rinsed with PBS as described above four (4) times to remove any excess stain from the plate. Following the PBS rinsing steps, the plate was eluted with 250 μl/well of ethanol, which improved the detection of the stain. The plate was immediately analyzed spectrophotometrically at 540 nm using a microtiter plate reader. The inhibitory effect each compound had on the bacteria's ability to form a biofilm on the surface of each well was determined as follows: The absorbance values observed for each set of three (3) wells correlating with a test compound or control were averaged. The average absorbance value for each test compound was compared to the average absorbance value of the negative control (the positive control was employed to verify proper assay function). In general, biofilm inhibition activity is inversely proportional to absorbance values, whereby, for example, low absorbance values correlate with significant inhibition activity and high absorbance values correlate with small or no inhibition activity. The approximate percent inhibition observed for each compound was calculated by comparing the average absorbance value for each test compound to the average absorbance value for the negative controls. Table 2 summarizes the average percent inhibition observed for the tested compounds listed against biofilms generated by Pseudomonas aeruginosa.

P. aeruginosa = settings: 10 μg/mL
Procedure: In general, flow cell analysis begins by inoculating a microorganism into test and control flow cells along with the appropriate growth media (which may vary depending upon the organism involved). The microorganisms are maintained in the flow cells until they have produced biofilms having the desired coverage and thickness. Thereafter, the test flow cells are treated with appropriate concentrations of test inhibitors. […] Such negative controls may be used as reference points when measuring biofilm inhibition activity.
After the appropriate flow cells are treated with the test inhibitors, Live/Dead stain is applied to each flow cell for approximately 45 minutes. Any currently-available Live/Dead stain may be employed in this procedure, such as LIVE BacLight™ Bacterial Gram stain (Molecular Probes, Inc., Eugene, Oreg., USA). The biofilm is subsequently rinsed with sterile media to remove excess stain, and the sample is transferred to a confocal microscope for imaging. The Live/Dead stain differentially stains the bacterial cells with green for Live and red for Dead. In a flow cell environment, it is generally understood that bacteria require the presence of biofilms to propagate. Accordingly, the activity of a biofilm inhibitor may be indirectly measured by comparing the number of live bacterial cells included in a flow cell that contained a test inhibitor to that of a negative control.
The negative control flow cells included the inoculum in LB media with 0.2% glucose without any inhibitors. […] The test and control cells were subsequently stained and analyzed as described above.
In this example, the number of live colony forming units (CFU) detected in the sample flow cells were compared to that of the negative control to indirectly measure biofilm inhibition.

Escherichia coli = assay: Minimum inhibitory concentration (NCCLS broth microdilution); type: cell-based; settings: LB media with 0.2% glucose; 35° C. for 20-24 hours
Procedure: as §1, §2, §3, §4

[3] = tested on: Pseudomonas aeruginosa strain PAO 1; assay: Rotating disk reactor biofilm test in combination with tobramycin; type: cell-based; settings: 48 hours biofilm; compound 110 approximately 100 μg/mL for 24 hours; tobramycin 100 μg/mL for two hours; polystyrene coupons
Procedure: In this example, compound 110 was tested for biofilm inhibition with Pseudomonas aeruginosa in combination with Tobramycin. Specifically, biofilm formation of P. aeruginosa was evaluated using a standardized biofilm method with a rotating disk reactor (RDR), which is also known as “ASTM Standard Method #E-2196-02.” The rotating disk reactor consisted of a one-liter glass beaker fitted with a drain spout. The bottom of the vessel contained a magnetically driven rotor with six 1.27 cm diameter coupons constructed from polystyrene. The rotor consisted of a star-head magnetic stir bar upon which a disk was affixed to hold the coupons. The vessel (with the stir bar) was placed on a stir plate and rotated to provide fluid shear. A nutrient solution (AB Trace Medium with 0.3 mM glucose, see Table 5 below for specific formulation) was added through a stopper in the top of the reactor at a flow rate of 5 mL/min. The reactor volume was approximately 180 mL. At a volume of 180 mL, the residence time of the reactors was 36 minutes. The reactors were operated at room temperature (c.a. 26° C.). In this example, two RDRs were operated in parallel with one receiving compound 110 and the other serving as an untreated control. […] The plates were incubated for 24 hours at 37° C. before colony forming units (CFU) were determined.

[4] = live CFU compared to negative control flow cell

Row | Structure (SMILES) | MIC (μg/mL) - Pseudomonas aeruginosa (Pseudomonas aeruginosa [1]) [µg/mL] | Biofilm Inhibition- Pseudomonas aeruginosa (Pseudomonas aeruginosa [2]) [%] | other results
1 | C[C@@H]1[C@H]2C3=CC[C@@H]4[C@@]5(C)CC[C@H](OC(=O)/C=C\c6ccc(O)cc6)C(C)(C)[C@@H]5CC[C@@]4(C)[C@]3(C)CC[C@@]2(C(=O)O)CC[C@]1(C)O (relative stereo) [Compound 188, 3β-O-cis-p-coumaroyl-20β-hydroxy-12-ursen-28-oic acid] | >10 |  | 
2 | CC1(C)C[C@@H](C(=O)O)C2CCC3C(=CCC4C3(C)CCC3C4(C)C[C@@H](O)[C@H](O)C3(C)C)[C@@H]2C1 (some centres unmarked) [Compound 107] | >10 | 46 | 
3 | COc1cc(/C=C/C(=O)OC2C(O)CC3(C)C(CCC4(C)C3CC=C3C5C(C)C(C)CCC5(C(=O)O)CCC34C)C2(C)C)ccc1O (stereo not drawn) [Compound 116, 3α-O-trans-feruloyl-2α-hydroxy-12-ursen-28-oic acid] | >10 |  | Flow Cell with Compound 116 (CFU), Average (P. aeruginosa; LB media with 0.2% glucose, applied approximately 4 hours after inoculum, average): 1.76E+06 CFU; Flow Cell with Compound 116 (CFU), single flow cell (P. aeruginosa; LB media with 0.2% glucose, applied approximately 4 hours after inoculum, individual values): 2.06E+06 CFU and 1.46E+06 CFU; Log Reduction (P. aeruginosa; [4]): 0.28; Percent Reduction (P. aeruginosa; [4]): 47%; Percent Reduction (P. aeruginosa; live CFU compared to negative control flow cell, listed as compound 116): ~47%
4 | C[C@H]1[C@H](C)CC[C@]2(C(=O)O)CCC3C(=CCC4[C@@]3(C)CCC3C(C)(C)[C@@H](OC(=O)/C=C/c5ccc(O)cc5)[C@H](O)C[C@@]34C)[C@H]12 (some centres unmarked) [Compound 189] | >10 | 35 | 
5 | C[C@@H]1CC[C@]2(C(=O)O)CC[C@]3(C)C(=CCC4[C@@]5(C)C[C@@H](O)[C@H](O)C(C)(C)C5CC[C@]43C)[C@@H]2[C@]1(C)O (some centres unmarked) [Compound 203] | >10 | 43 | 
6 | CC1(C)CC[C@]2(C(=O)O)CC[C@]3(C)C(=CC[C@@H]4[C@@]5(C)CC[C@H](O)C(C)(C)[C@@H]5CC[C@]43C)[C@@H]2C1 [Compound 225] |  |  | MIC (μg/mL) - Escherichia coli (Escherichia coli): >10 µg/mL
7 | NC[C@H]1O[C@H](O[C@H]2[C@H](O)[C@@H](O[C@H]3O[C@H](CO)[C@@H](O)[C@H](N)[C@H]3O)[C@H](N)C[C@@H]2N)[C@H](N)C[C@@H]1O [Tobramycin, reference compound] |  |  | CFU (in log 10) [3]: 6.1 CFU (in log 10)

Second part, led by results:

Row | MIC (μg/mL) - Pseudomonas aeruginosa (Pseudomonas aeruginosa [1]) [µg/mL] | Structure (SMILES) | Biofilm Inhibition- Pseudomonas aeruginosa (Pseudomonas aeruginosa [2]) [%] | other results
8 | >10 | C[C@H]1[C@H](CO)C[C@@H](C(=O)O)C2CC[C@]3(C)C(=CCC4[C@@]5(C)CC[C@H](O)C(C)(C)C5CC[C@]43C)[C@@H]21 (some centres unmarked) [Compound 99] | 30 | MIC (μg/mL) - Staphylococcus aureus (Staphylococcus aureus): >32 µg/mL
9 | >10 | C[C@@H]1C[C@@H](C(=O)O)C2CC[C@]3(C)C(=CCC4[C@@]5(C)C[C@@H](O)[C@H](O)C(C)(C)C5CC[C@]43C)[C@@H]2[C@]1(C)O (some centres unmarked) [Compound 192] | 32 | 
10 | >10 | C[C@@H]1[C@H]2C3=CCC4[C@@]5(C)CC[C@H](O)C(C)(C)C5CC[C@@]4(C)[C@]3(C)CC[C@@]2(C(=O)O)CC[C@]1(C)O (some centres unmarked) [Compound 195] | 25 | MIC (μg/mL) - Staphylococcus aureus (Staphylococcus aureus): >8 µg/mL

From patent publication US20090192327A1, “METHODS AND COMPOSITIONS FOR INHIBITING BIOFILMS” (Sequoia Sciences, Inc., priority 2004, published 2009)
